Assay in all cases: DTP human tumour cell line panel, 48 h
The subject of test [1] is OVCAR-8 ovarian.
Test [2] deals with OVCAR-4 ovarian.
Test [3] relates to LOX IMVI melanoma.
Test [4] concerns SF-268 CNS.
The subject of test [5] is HOP-92 NSCLC.
Test [6] deals with RPMI-8226 leukemia.
The subject of test [7] is SNB-19 CNS.
The test system of test [8] is TK-10 renal.
For test [9], the system named is OVCAR-3 ovarian.
For test [10], the system named is BT-549 breast.

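In this assay, cells in 96-well plates receive the compound at five concentrations for 48 hours. Endpoints are linearly interpolated between the surrounding concentrations. TGI: total growth inhibition.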

Take `C/C=C(/I)CBr`: the TGI in [1] came to 45.4 µM; in [2], 49.3 µM; in [3], 36.2 µM; in test [4], 74.5 µM; in [5], 29.2 µM; in test [6], 39.2 µM. In addition, the TGI in test [7] is 63.5 µM.

Consider `[N-]=[N+]=NC(c1cn(C2CC(O)C(CO)O2)c(=O)[nH]c1=O)C(Br)Br` (configuration not stated), for which the TGI in [1], in test [3], in [8], in [5], in [9] and in [6] was more than 100 µM each time. This compound also displayed a TGI in [7] of more than 100 µM.

As to `O=C(/C=C/c1ccccc1)CSc1ncn[nH]1`, the TGI in test [1], in [2], in [8], in test [10], in test [4] and in [9] was more than 100 µM each time. The TGI in test [6] and in test [7] was more than 100 µM each time.

For `CCOc1ccc2[nH]c3c(C)c4ccncc4c(C)c3c2c1`, the TGI in test [2] was 2.72 µM; in test [3], 2.49 µM; in test [8] it was 3.59 µM; in test [4], 2.71 µM; in test [5] it was 3.07 µM; in test [9] it was 17.7 µM. For the same compound, the TGI in test [7] is 2.77 µM.

In the case of `Brc1ccc(C[P+]2(c3ccccc3)CCCCC2)cc1`, the TGI in [1], in [3], in test [8], in [9], in test [6] and in test [7] was more than 100 µM each time.

As to `COC(=O)CCC1=C(CC(=O)OC)C(C)(OC)N=C1NC(=O)OCc1ccccc1` (configuration not stated), the total growth inhibition concentration (TGI) in test [1], in test [2], in test [3], in test [8], in test [10] and in test [4] was more than 100 µM each time. Moreover, the TGI in [6] and in test [7] was more than 100 µM throughout.

On to `COC(=O)c1ccc(/C=C2\Oc3ccccc3C2=O)cc1`, for which the TGI in test [1], in test [2], in test [8], in test [10], in [4] and in test [9] was more than 100 µM in each case. The TGI in [6] and in [7] was more than 100 µM throughout.

As to `COc1ccc(C(=O)O[C@H]2[C@@H]3C=CO[C@@H](OC4OC(CO)C(O)C(O)C4O)[C@@H]3[C@@]3(CO)O[C@@H]23)cc1O` (some centres not stated), the TGI in test [1], in [2], in [3], in test [8], in test [4] and in [5] was more than 100 µM throughout. For the same compound, the TGI in test [9], in test [6] and in test [7] was more than 100 µM each time.

Take `NC(=S)/N=C(/c1nc2ccc(Cl)cc2[nH]c1=O)C(O)c1ccccc1Cl` (configuration not stated): the TGI in [1], in [2], in test [3], in test [8], in [4] and in [5] was more than 100 µM each time. Also, the TGI in test [6] was more than 100 µM.

On to `O=C(OC1C2OC(=O)c3cc(O)c(O)c(O)c3Oc3cc4c(c(O)c3O)-c3c(cc(O)c(O)c3O)C(=O)OCC3OC(O)C(OC(=O)c5cc(O)c(O)c(O)c5Oc5cc6c(c(O)c5O)-c5c(cc(O)c(O)c5O)C(=O)OC1C(COC6=O)OC2O)C(OC(=O)c1cc(O)c(O)c(O)c1)C3OC4=O)c1cc(O)c(O)c(O)c1` (configuration not stated), for which the TGI in test [1] was 81.3 µM; in [2], 47.8 µM; in test [3] it was 59.7 µM; in test [8], more than 100 µM; in test [4] it was more than 100 µM; in [5] it was 58.5 µM. The TGI in [9] is more than 100 µM; in test [6], 50.1 µM; in test [7], 51.6 µM.

`c1cc2c(cc1NC1=NCCO1)OCO2`: the TGI in test [1], in test [2], in test [3], in test [8], in test [4] and in test [5] was more than 100 µM in each case. In addition, the TGI in test [9], in test [6] and in test [7] was more than 100 µM each time.

Consider `COc1ccc(-n2c(N)c(C#N)[nH]c2=O)cc1`, for which the TGI was more than 10 µM in test [1]; more than 10 µM in test [2]; 3.98 µM in test [3]; more than 10 µM in [8]; more than 10 µM in test [4]; more than 10 µM in test [5]. In addition, the TGI in test [9], in [6] and in test [7] was more than 10 µM in each case.

Take `CN(C(=O)C12C3C4C5C3C1(C(=O)C13C6C7C8C6C1C8C73)C5C42)C(C)(C)C` (configuration not stated): the TGI in [1] was more than 50 µM; in [2] it was more than 50 µM; in [3], more than 29.7 µM; in [8], more than 50 µM; in [4] it was more than 50 µM; in test [5], more than 50 µM. The TGI in [9] was more than 50 µM; in test [6], more than 42.9 µM; in test [7], more than 50 µM.

`O=CNNC(=O)Nc1cccc2ccccc12`: the TGI in test [1], in test [2], in [8], in test [4], in [6] and in [7] was more than 100 µM in each case.

For `COc1ccc(N=NC(C(=O)c2ccccc2)C(=O)c2ccccc2)cc1`, the TGI in test [1] is more than 100 µM; in [2], more than 100 µM; in test [3] it was 47 µM; in test [8] it was more than 100 µM; in test [4] it was more than 100 µM; in [9] it was more than 100 µM. Further, the TGI in [6] was determined as 53.7 µM; in [7], 80.3 µM.

As for `COC(=O)/C=C(C)/C=C/C1OC(C)OCC1O` (configuration not stated), the TGI in [1], in test [2], in test [3], in [8], in test [4] and in [5] was more than 100 µM each time. Further, the TGI in [9], in test [6] and in test [7] was more than 100 µM each time.

Take `CN1CN(c2ccccc2)C2(CCN(CC(C)(c3ccc(F)cc3)C3OCCCO3)CC2)C1=O` (configuration not stated): the TGI was determined as 38.5 µM in test [1]; 31.8 µM in [3]; 31.9 µM in [8]; 19.2 µM in [10]; 44.9 µM in test [4]; 24.5 µM in test [9]. The TGI in test [6] turned out to be 27.3 µM; in test [7], 42 µM.

With `Cc1c2ccncc2cc2c1[nH]c1ccccc12`, the TGI in [1] turned out to be 16.2 µM; in test [2] it was 33.2 µM; in test [3], 7.35 µM; in test [4], 32.3 µM; in [5] it was 15.2 µM; in test [9] it was 25.8 µM. For the same compound, the TGI turned out to be 8.7 µM in test [6] and 34.7 µM in test [7].

For `CCOC(=O)C(=O)Nc1ccccc1C`, the TGI in test [1], in test [2], in test [3], in [8], in test [4] and in test [5] was more than 100 µM in each case. The TGI in test [6] and in test [7] was more than 100 µM in each case.

Consider `CS(=O)(=O)c1nc(-c2cc3c(c(S(C)(=O)=O)n2)CCCC3)cc2c1CCCCC2`, for which the TGI in test [1] is more than 100 µM; in test [2], more than 100 µM; in test [8], more than 100 µM; in test [10], more than 100 µM; in test [4], 85.1 µM; in [9] it was more than 100 µM. The TGI in test [6] and in test [7] was more than 100 µM throughout.

Regarding `N#CN/C(N)=N/C/N=C(\N)NC#N`, the TGI in test [1], in test [2], in [8], in test [4], in test [5] and in test [9] was more than 100 µM throughout. Besides, the TGI in [6] and in test [7] was more than 100 µM each time.

Consider `NC1=C(NC(=O)Cc2ccccc2F)C(=O)c2ccccc2C1=O`, for which the TGI was more than 100 µM in [1]; more than 100 µM in [2]; 69.7 µM in test [8]; more than 100 µM in test [4]; 98.1 µM in [5]; 66.9 µM in test [9]. Moreover, the TGI in test [6] and in test [7] was more than 100 µM throughout.

On to `CCCCCCCCCCCCCCCCNC(=O)C(=O)/C=C(\O)c1ccc(C)cc1`, for which the TGI in [1], in test [2], in test [3], in test [8], in [4] and in test [9] was more than 10 µM throughout. In test [6], this compound showed a TGI of more than 10 µM.

As to `CC1=Nc2c(ccc3c2C(=O)c2ccccc2C3=O)NC(c2cccc3c2CCC3)C1` (configuration not stated), the TGI in test [1], in test [2], in test [3], in test [8], in test [4] and in test [5] was more than 100 µM throughout. For the same compound, the TGI in test [9], in [6] and in [7] was more than 100 µM in each case.

Regarding `CO/N=C(/C)c1cccc(Nc2nc3ccccc3c3[nH]c4ccccc4c23)c1`, the TGI in [1] amounted to 20.9 µM; in test [3], 25 µM; in test [4], 25.7 µM; in test [9], 20.6 µM; in test [7] it was 26.7 µM.

Consider `CCOC(=O)c1nnsc1N/N=C\c1ccc([N+](=O)[O-])cc1`, for which the TGI in [1], in [2], in [8], in test [10], in [4] and in test [9] was more than 100 µM throughout. The TGI in test [6] and in [7] was more than 100 µM throughout.

In the case of `CC(=O)OCC1OC(n2cc(F)c(=O)[nH]c2=O)C(NC(=O)OCc2ccccc2)C(OC(C)=O)C1OC(C)=O` (configuration not stated), the TGI in test [1], in [2], in [3], in [4], in test [5] and in test [9] was more than 100 µM each time. Further, the TGI in test [6] and in [7] was more than 100 µM each time.

Turning to `O=C(O)CCC(=O)c1ccc2c(c1)C(C(=O)O)CC2` (configuration not stated), the TGI in test [1], in test [2], in test [3], in test [8], in test [4] and in [5] was more than 100 µM in each case. Further, the TGI in [9], in [6] and in test [7] was more than 100 µM each time.

For the compound `CCOC(=O)c1c(N=P(c2ccccc2)(c2ccccc2)c2ccccc2)nnc(-c2ccccc2)c1-c1ccccc1`, the TGI in [1], in [2], in test [3], in test [8], in test [4] and in test [5] was more than 100 µM throughout. Further, the TGI in test [9] and in test [7] was more than 100 µM each time.

As for `COc1ccc(-n2[nH]nc(C(N)=O)c2=O)cc1`, the TGI in [1] was more than 100 µM; in test [2], more than 100 µM; in test [3], more than 100 µM; in test [10], more than 100 µM; in [4] it was more than 100 µM; in test [9], 13.8 µM. Also, the TGI in [6] and in test [7] was more than 100 µM throughout.

With `C=C1C(=O)O[C@H]2C[C@@]3(COC(C)=O)C=COC=C(COC(=O)C(C)C)C3CC12` (some centres not stated), the TGI was more than 100 µM in test [1]; more than 100 µM in test [3]; more than 100 µM in test [8]; more than 100 µM in test [10]; more than 100 µM in [9]; 63.6 µM in [6]. The TGI in test [7] was more than 100 µM.

For the compound `CC1=C(C(=O)CC(=O)C(=O)Nc2cc(C)ccc2C)Sc2ccccc2N1`, the TGI in test [1], in test [2], in test [3], in test [8], in test [4] and in [5] was more than 100 µM in each case. In addition, the TGI in [9], in test [6] and in test [7] was more than 100 µM in each case.

One may read the TGI as the concentration at which net growth stops. Low readings indicate more potent growth arrest, high ones less potent growth arrest.
